Some test systems named below: HCT-116; SNB-19; MDA-N; UACC-257; SN12C; COLO 205; CCRF-CEM; TK-10; IGROV-1; OVCAR-3; KM12; NCI/ADR-RES; NCI-H23; OVCAR-8; T47D; OVCAR-4; NCI-H522; 786-0; ACHN.
Assay in all cases: DTP human tumour cell line panel, 48 h

The structures appear in SMILES notation.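 The compound was tested at five concentrations on cells cultured in 96-well plates, with a 48-hour exposure period. GI50 = concentration required for 50% inhibition of growth.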 Activity calls are given as the source filed them. No stated cut-off is given here; in the data, active = GI50 up to about 1.1 µM and inactive = higher. Some results are limits rather than exact numbers.

What is called GI50 is the concentration at which growth is held to half of that of the control. For `OC(c1ccc(Cl)cc1)(c1ccc(Cl)cc1)c1cncnc1`, the GI50 in the experiment on HCT-116 is 14.3 µM (inactive); in the experiment with SNB-19, 22.5 µM (inactive); with MDA-N, 19.2 µM (inactive); with UACC-257, 19.2 µM (inactive); in the experiment with SN12C, 26.7 µM (inactive); with COLO 205, 19 µM (inactive). Besides, the GI50 in the experiment with CCRF-CEM was 15.3 µM (inactive); in the experiment on TK-10, 21.8 µM (inactive); in the experiment on IGROV-1, > 10 µM (inactive); in the experiment on OVCAR-3 it was 17.1 µM (inactive); in the experiment with KM12, 17.6 µM (inactive); in the experiment with NCI/ADR-RES, 26.4 µM (inactive). Besides, the GI50 was 26.3 µM (inactive) in the experiment with NCI-H23, 21.4 µM (inactive) in the experiment with OVCAR-8, 28.2 µM (inactive) in the experiment with T47D and 14.7 µM (inactive) in the experiment with OVCAR-4.

For `CCCc1c(OC)c(=O)c2c(O)cc(OC)c3c4c(OC)cc(O)c5c(=O)c(OC)c(CCC)c(c1c23)c54`, the GI50 is 2.63 µM (inactive) with HCT-116; 4.32 µM (inactive) in the experiment with SNB-19; 4.05 µM (inactive) in the experiment with MDA-N; 13.4 µM (inactive) with UACC-257; 3.15 µM (inactive) with SN12C; 4.35 µM (inactive) with COLO 205. In addition, the GI50 in the experiment with NCI-H522 was 1.53 µM (inactive); in the experiment on 786-0, 2.84 µM (inactive); in the experiment on ACHN, 4.51 µM (inactive); in the experiment with CCRF-CEM it was 1.26 µM (inactive); with TK-10 it was 44.7 µM (inactive); with IGROV-1, 2.98 µM (inactive). In addition, the GI50 is 3.47 µM (inactive) in the experiment on OVCAR-3; 8.57 µM (inactive) in the experiment with KM12; 5.26 µM (inactive) with NCI/ADR-RES; 7.94 µM (inactive) in the experiment on NCI-H23; 0.944 µM (active) in the experiment on OVCAR-8; 3.72 µM (inactive) with OVCAR-4.

`COc1ccccc1N1CCN(CCCNC(=O)c2cc(Cl)c(N)c(Cl)c2)CC1`: the GI50 was 31 µM (inactive) in the experiment with HCT-116; 41.3 µM (inactive) in the experiment with SNB-19; 22.8 µM (inactive) in the experiment with UACC-257; 20 µM (inactive) in the experiment with SN12C; > 10 µM (inactive) in the experiment with COLO 205; 33.3 µM (inactive) in the experiment with 786-0. Further, the GI50 was 55.2 µM (inactive) with ACHN; 29.7 µM (inactive) in the experiment with CCRF-CEM; 54.2 µM (inactive) with TK-10; 71.6 µM (inactive) in the experiment on IGROV-1; 26.9 µM (inactive) in the experiment with KM12; 36.8 µM (inactive) in the experiment on NCI/ADR-RES. Further, the GI50 in the experiment on NCI-H23 is 49.7 µM (inactive); in the experiment on OVCAR-8, 47.5 µM (inactive); in the experiment with T47D, 42.9 µM (inactive); in the experiment on OVCAR-4, 52 µM (inactive).

As for `O=C1C[C@@H](c2ccccc2)O[C@@H](c2ccccc2)C1`, the GI50 with HCT-116 was > 100 µM (inactive); with SNB-19, > 100 µM (inactive); in the experiment with MDA-N, 58.6 µM (inactive); in the experiment on UACC-257 it was > 100 µM (inactive); in the experiment with SN12C, 84.7 µM (inactive); in the experiment with COLO 205, 97.5 µM (inactive). Further, the GI50 in the experiment with 786-0, in the experiment on CCRF-CEM, in the experiment on IGROV-1, in the experiment on OVCAR-3, in the experiment on KM12 and in the experiment with NCI/ADR-RES was > 100 µM (inactive) in each case. Moreover, the GI50 in the experiment on NCI-H23, in the experiment with OVCAR-8, in the experiment on T47D and with OVCAR-4 was > 100 µM (inactive) throughout.

As for `Cc1cc2nc(N3C(=O)/C(=C/c4ccccc4S)N=C3c3ccccc3)sc2cc1C`, the GI50 is 18.3 µM (inactive) with HCT-116; 55.8 µM (inactive) in the experiment with SNB-19; 11.6 µM (inactive) in the experiment on MDA-N; 23.3 µM (inactive) in the experiment with UACC-257; 25.8 µM (inactive) in the experiment with SN12C; 30.6 µM (inactive) in the experiment with COLO 205. Also, the GI50 was 18.7 µM (inactive) in the experiment on 786-0; 32.7 µM (inactive) in the experiment with ACHN; 18.8 µM (inactive) with CCRF-CEM; 58.1 µM (inactive) in the experiment on TK-10; 18.8 µM (inactive) in the experiment with IGROV-1; 49.3 µM (inactive) with OVCAR-3. The GI50 is 34 µM (inactive) with KM12; 26.7 µM (inactive) in the experiment on NCI/ADR-RES; 46.5 µM (inactive) in the experiment on OVCAR-8; 54.1 µM (inactive) in the experiment on T47D; 43.1 µM (inactive) in the experiment on OVCAR-4.

In the case of `CC(=O)c1ccc(N2CCN(C3=C(Cl)C(=O)c4c(O)ccc(O)c4C3=O)CC2)cc1`, the GI50 was 3.5 µM (inactive) in the experiment on HCT-116; 20.7 µM (inactive) in the experiment with SNB-19; 3.24 µM (inactive) in the experiment with MDA-N; 7.6 µM (inactive) with UACC-257; 2.67 µM (inactive) in the experiment on COLO 205; 14.2 µM (inactive) in the experiment on 786-0. For the same compound, the GI50 was 0.417 µM (active) in the experiment on CCRF-CEM; 5.14 µM (inactive) with TK-10; 4 µM (inactive) in the experiment on IGROV-1; 5.19 µM (inactive) in the experiment on OVCAR-3; 10 µM (inactive) in the experiment on KM12; 9.1 µM (inactive) in the experiment with NCI/ADR-RES. Moreover, the GI50 was 2.92 µM (inactive) in the experiment on NCI-H23, 3.86 µM (inactive) in the experiment on OVCAR-8, 2.91 µM (inactive) in the experiment on T47D and 3.14 µM (inactive) in the experiment on OVCAR-4.

Consider `CN(C)C(=S)/N=c1\ss/c(=N\C(=S)N(C)C)n1-c1ccc2c(c1)OCO2`, for which the GI50 was > 100 µM (inactive) in the experiment on HCT-116; > 100 µM (inactive) with SNB-19; > 100 µM (inactive) in the experiment on UACC-257; > 100 µM (inactive) in the experiment with SN12C; 15.6 µM (inactive) in the experiment on NCI-H522; > 100 µM (inactive) in the experiment on 786-0. Moreover, the GI50 was > 100 µM (inactive) in the experiment with ACHN; > 100 µM (inactive) with TK-10; 10 µM (inactive) in the experiment on IGROV-1; > 100 µM (inactive) with OVCAR-3; > 100 µM (inactive) with KM12; > 100 µM (inactive) in the experiment with NCI-H23. Moreover, the values for the GI50 with OVCAR-8 and in the experiment with OVCAR-4 were > 100 µM (inactive) and 4.19 µM (inactive), respectively.

`COC(=O)C(CC(=O)c1c[nH]c2ccccc12)c1c[nH]c2ccccc12` (configuration not stated): the GI50 with HCT-116 is 15.8 µM (inactive); in the experiment with UACC-257 it was 15.4 µM (inactive); with 786-0 it was 23.9 µM (inactive); in the experiment with ACHN, 16.3 µM (inactive); in the experiment on CCRF-CEM, 17.9 µM (inactive); in the experiment with TK-10 it was 31.2 µM (inactive). Moreover, the GI50 is > 10 µM (inactive) in the experiment with IGROV-1; > 10 µM (inactive) in the experiment with OVCAR-3; > 10 µM (inactive) with KM12; 16.7 µM (inactive) in the experiment with NCI-H23; 22.6 µM (inactive) in the experiment with OVCAR-8; 17.1 µM (inactive) with OVCAR-4.

With `CCN(CC)c1c(-c2c(OC(C)C)c(=O)c2=O)c(=O)n2ccsc2c1OC(C)=O`, the GI50 in the experiment with HCT-116, in the experiment with SNB-19, with MDA-N, with UACC-257, in the experiment on SN12C and in the experiment on COLO 205 was > 100 µM (inactive) in each case. The GI50 in the experiment with NCI-H522 is 17.5 µM (inactive); in the experiment on 786-0, > 100 µM (inactive); with ACHN, > 100 µM (inactive); in the experiment with CCRF-CEM, > 100 µM (inactive); in the experiment with TK-10, > 100 µM (inactive); in the experiment on IGROV-1, 89.9 µM (inactive). The GI50 with OVCAR-3, with KM12, in the experiment with NCI/ADR-RES, with NCI-H23, in the experiment with OVCAR-8 and with OVCAR-4 was > 100 µM (inactive) in each case.

`CCOC(=O)/C(=C\NC#N)c1nc2ccccc2[nH]1`: the GI50 in the experiment with HCT-116, in the experiment on SNB-19, in the experiment on MDA-N, with UACC-257, with SN12C and in the experiment on COLO 205 was > 100 µM (inactive) throughout. Also, the GI50 in the experiment with NCI-H522 is 68.5 µM (inactive); with 786-0, > 100 µM (inactive); with ACHN, 30.2 µM (inactive); in the experiment with TK-10, 85.5 µM (inactive); in the experiment on IGROV-1 it was 58.9 µM (inactive); in the experiment with OVCAR-3, > 100 µM (inactive). The GI50 in the experiment on KM12, with NCI/ADR-RES, in the experiment on NCI-H23, with OVCAR-8 and in the experiment with OVCAR-4 was > 100 µM (inactive) throughout.

As to `Cn1ccnc1CC(C)(O)c1ccccc1` (configuration not stated), the GI50 in the experiment on HCT-116, in the experiment on SNB-19, in the experiment on MDA-N, in the experiment with UACC-257, with SN12C and in the experiment on COLO 205 was > 100 µM (inactive) throughout. For the same compound, the GI50 with NCI-H522, in the experiment on 786-0, in the experiment on ACHN, in the experiment on TK-10, in the experiment on IGROV-1 and in the experiment with OVCAR-3 was > 100 µM (inactive) in each case. The GI50 in the experiment with KM12, in the experiment with NCI/ADR-RES, in the experiment on NCI-H23, with OVCAR-8 and in the experiment on OVCAR-4 was > 100 µM (inactive) throughout.

On to `O=c1[nH]c(=O)n(CCOc2ccc(Cl)cc2)cc1Nc1ccccc1`, for which the GI50 in the experiment on HCT-116, in the experiment with SNB-19, in the experiment on MDA-N, in the experiment on UACC-257, in the experiment on SN12C and in the experiment with COLO 205 was > 100 µM (inactive) throughout. For the same compound, the GI50 in the experiment on 786-0 was 44.3 µM (inactive); in the experiment with ACHN it was > 100 µM (inactive); in the experiment on CCRF-CEM, > 100 µM (inactive); in the experiment on IGROV-1 it was > 100 µM (inactive); with OVCAR-3 it was 85.3 µM (inactive); with KM12, > 100 µM (inactive). Moreover, the values for the GI50 in the experiment with NCI/ADR-RES, in the experiment with NCI-H23 and in the experiment with OVCAR-4 were > 100 µM (inactive), > 100 µM (inactive) and 49 µM (inactive), respectively.

Source of the values: ChEMBL document CHEMBL1201862, “PubChem BioAssay data set” (2004).
